Results: PubChem BioAssay (NCI)
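Growth conditions: 96-well plates. Treatment: test compound, 48 hours, 5 concentrations. Analysis: linear interpolation between bracketing concentrations; unreached endpoints set to highest concentration. TGI is the concentration that stops growth completely.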

Assays:
Assay in all cases: inhibition of tumour cell growth, NCI panel, 48 h
ACHN renal = system: ACHN renal
CAKI-1 renal = system: CAKI-1 renal
DU-145 prostate = system: DU-145 prostate
HCT-116 colon = system: HCT-116 colon
MCF7 breast = system: MCF7 breast
MDA-MB-231 breast = system: MDA-MB-231 breast
NCI-H23 lung = system: NCI-H23 lung
NCI-H522 lung = system: NCI-H522 lung
NCI/ADR-RES ovarian = system: NCI/ADR-RES ovarian
UACC-257 melanoma = system: UACC-257 melanoma

O=C(OCC1OC(n2nc(Cn3nnc(-c4cccnc4)n3)n(-c3cccc4ccccc34)c2=S)C(OC(=O)c2ccccc2)C1OC(=O)c1ccccc1)c1ccccc1 (stereo unspecified)
TGI (ACHN renal): > 100 µM
TGI (CAKI-1 renal): > 100 µM
TGI (DU-145 prostate): > 100 µM
TGI (HCT-116 colon): > 100 µM
TGI (MCF7 breast): > 100 µM
TGI (MDA-MB-231 breast): > 100 µM
TGI (NCI-H23 lung): > 100 µM
TGI (NCI-H522 lung): > 100 µM
TGI (NCI/ADR-RES ovarian): > 100 µM
TGI (UACC-257 melanoma): > 100 µM

N#Cc1c(-c2ccccc2)c2c([nH]c1=O)-c1cc([N+](=O)[O-])ccc1CCC2
TGI (ACHN renal): 83.6 µM
TGI (CAKI-1 renal): > 100 µM
TGI (DU-145 prostate): 71.2 µM
TGI (HCT-116 colon): > 100 µM
TGI (MCF7 breast): 71.8 µM
TGI (MDA-MB-231 breast): > 100 µM
TGI (NCI-H23 lung): 71.1 µM
TGI (NCI-H522 lung): 97.8 µM
TGI (NCI/ADR-RES ovarian): 71.5 µM
TGI (UACC-257 melanoma): > 100 µM

c1ccc([P+](CCCCCCCC[P+](c2ccccc2)(c2ccccc2)c2ccccc2)(c2ccccc2)c2ccccc2)cc1
TGI (ACHN renal): > 100 µM
TGI (CAKI-1 renal): > 100 µM
TGI (DU-145 prostate): > 100 µM
TGI (HCT-116 colon): > 100 µM
TGI (MCF7 breast): > 87.5 µM
TGI (MDA-MB-231 breast): > 100 µM
TGI (NCI-H23 lung): > 52.8 µM
TGI (NCI-H522 lung): 12.1 µM
TGI (NCI/ADR-RES ovarian): > 100 µM
TGI (UACC-257 melanoma): > 37.7 µM

CCOC(=O)C1CCC(=O)N1C(=O)c1ccccc1Cl (stereo unspecified)
TGI (ACHN renal): > 100 µM
TGI (CAKI-1 renal): > 100 µM
TGI (DU-145 prostate): > 100 µM
TGI (HCT-116 colon): > 100 µM
TGI (MCF7 breast): > 100 µM
TGI (MDA-MB-231 breast): > 100 µM
TGI (NCI-H23 lung): > 100 µM
TGI (NCI-H522 lung): > 100 µM
TGI (NCI/ADR-RES ovarian): > 100 µM
TGI (UACC-257 melanoma): > 100 µM

CN1CCN(C2=C(Cl)C3(OCCS3)C(F)(F)C2(F)F)CC1 (stereo unspecified)
TGI (ACHN renal): > 100 µM
TGI (CAKI-1 renal): > 100 µM
TGI (DU-145 prostate): > 100 µM
TGI (HCT-116 colon): > 100 µM
TGI (MCF7 breast): > 100 µM
TGI (MDA-MB-231 breast): > 100 µM
TGI (NCI-H23 lung): > 100 µM
TGI (NCI-H522 lung): > 100 µM
TGI (NCI/ADR-RES ovarian): > 100 µM
TGI (UACC-257 melanoma): > 100 µM

C[n+]1c(/C=C/c2ccc(O)c3ncccc23)[se]c2ccccc21
TGI (ACHN renal): 8.54 µM
TGI (CAKI-1 renal): 26 µM
TGI (DU-145 prostate): 16.8 µM
TGI (HCT-116 colon): 11.4 µM
TGI (MCF7 breast): 14.8 µM
TGI (MDA-MB-231 breast): 8.33 µM
TGI (NCI-H23 lung): 37.6 µM
TGI (NCI-H522 lung): 24.8 µM
TGI (NCI/ADR-RES ovarian): 28.7 µM
TGI (UACC-257 melanoma): 11.1 µM

O=C(/C=C/c1ccc2c(c1)OCO2)Cc1nc2ccccc2[nH]c1=O
TGI (ACHN renal): 74.3 µM
TGI (CAKI-1 renal): 48.1 µM
TGI (DU-145 prostate): 71.6 µM
TGI (HCT-116 colon): > 100 µM
TGI (MCF7 breast): > 100 µM
TGI (MDA-MB-231 breast): 41.7 µM
TGI (NCI-H23 lung): > 100 µM
TGI (NCI-H522 lung): > 100 µM
TGI (NCI/ADR-RES ovarian): > 100 µM
TGI (UACC-257 melanoma): 59.5 µM

O=C1CS(=O)(=O)C(c2cccc(Oc3ccccc3)c2)N1c1cc(Cl)ccc1Cl (stereo unspecified)
TGI (ACHN renal): 43.1 µM
TGI (DU-145 prostate): 43.3 µM
TGI (HCT-116 colon): 41.9 µM
TGI (MCF7 breast): 35.4 µM
TGI (MDA-MB-231 breast): 38.4 µM
TGI (NCI-H23 lung): > 100 µM
TGI (NCI-H522 lung): 56 µM
TGI (NCI/ADR-RES ovarian): 77.8 µM
TGI (UACC-257 melanoma): 55.9 µM

CC(=O)n1nc(-c2ccccc2)n(/N=C/c2ccc([N+](=O)[O-])o2)c1=O
TGI (ACHN renal): 19.1 µM
TGI (CAKI-1 renal): 24.4 µM
TGI (DU-145 prostate): 16.7 µM
TGI (HCT-116 colon): 3.71 µM
TGI (MCF7 breast): 13.8 µM
TGI (MDA-MB-231 breast): 17.1 µM
TGI (NCI-H23 lung): 14.3 µM
TGI (NCI-H522 lung): 7.15 µM
TGI (NCI/ADR-RES ovarian): 27.5 µM
TGI (UACC-257 melanoma): 12.2 µM

COP(=O)(OC)C(Nc1ccc(Cc2ccc(NC(c3ccco3)P(=O)(OC)OC)cc2)cc1)c1ccco1 (stereo unspecified)
TGI (ACHN renal): 89.9 µM
TGI (CAKI-1 renal): 86.3 µM
TGI (DU-145 prostate): > 100 µM
TGI (HCT-116 colon): > 100 µM
TGI (MCF7 breast): > 100 µM
TGI (MDA-MB-231 breast): 41.4 µM
TGI (NCI-H23 lung): 44.5 µM
TGI (NCI-H522 lung): > 100 µM
TGI (NCI/ADR-RES ovarian): > 100 µM
TGI (UACC-257 melanoma): > 100 µM

CCN1C(=O)C(=C/C=C/c2ccc(N(CC)CC)cc2)C(=O)N(CC)C1=S
TGI (ACHN renal): > 100 µM
TGI (CAKI-1 renal): > 100 µM
TGI (DU-145 prostate): > 100 µM
TGI (HCT-116 colon): > 100 µM
TGI (MCF7 breast): > 100 µM
TGI (MDA-MB-231 breast): > 100 µM
TGI (NCI-H23 lung): > 100 µM
TGI (NCI/ADR-RES ovarian): > 100 µM
TGI (UACC-257 melanoma): > 100 µM

CN(C)CCCNC(=O)c1c(O)c2ccccc2n(C)c1=O
TGI (ACHN renal): > 100 µM
TGI (CAKI-1 renal): > 100 µM
TGI (DU-145 prostate): > 100 µM
TGI (HCT-116 colon): > 100 µM
TGI (MCF7 breast): > 100 µM
TGI (MDA-MB-231 breast): > 100 µM
TGI (NCI-H23 lung): > 100 µM
TGI (NCI-H522 lung): > 100 µM
TGI (NCI/ADR-RES ovarian): > 100 µM
TGI (UACC-257 melanoma): > 100 µM

CC(C)N1CN(c2ccccc2)C2(CCN(CCCC(=O)c3ccc(F)cc3)CC2)C1=O
TGI (ACHN renal): 42.5 µM
TGI (CAKI-1 renal): 34.7 µM
TGI (DU-145 prostate): 24.2 µM
TGI (HCT-116 colon): 5.52 µM
TGI (MCF7 breast): 13.1 µM
TGI (MDA-MB-231 breast): 26.6 µM
TGI (NCI-H23 lung): 28.1 µM
TGI (NCI-H522 lung): 49.8 µM
TGI (NCI/ADR-RES ovarian): 31.1 µM
TGI (UACC-257 melanoma): 8.94 µM

C(=C\c1ccccc1)/COc1ccccc1C(N1CCOCC1)n1nc2ccccc2n1 (stereo unspecified)
TGI (ACHN renal): 38.8 µM
TGI (CAKI-1 renal): 43.7 µM
TGI (DU-145 prostate): 63.3 µM
TGI (HCT-116 colon): 22.8 µM
TGI (MCF7 breast): 6.57 µM
TGI (MDA-MB-231 breast): 15 µM
TGI (NCI-H23 lung): 24.6 µM
TGI (NCI-H522 lung): 49.3 µM
TGI (NCI/ADR-RES ovarian): 22.6 µM
TGI (UACC-257 melanoma): 25.5 µM

COC(=O)[C@H](Cc1ccccc1)NC(=O)N(CCC#N)CCN(C(=O)N[C@@H](Cc1ccccc1)C(=O)OC)c1ccccc1
TGI (ACHN renal): 33.9 µM
TGI (CAKI-1 renal): 41 µM
TGI (DU-145 prostate): 74.5 µM
TGI (HCT-116 colon): 82.5 µM
TGI (MCF7 breast): > 100 µM
TGI (MDA-MB-231 breast): 71 µM
TGI (NCI-H23 lung): 93.6 µM
TGI (NCI/ADR-RES ovarian): > 100 µM
TGI (UACC-257 melanoma): 37.5 µM

Cc1cc(NS(=O)(=O)c2ccc(NC(NC(=O)C(C(F)(F)F)C(F)(F)F)(C(F)(F)F)C(F)(F)F)cc2)no1
TGI (ACHN renal): > 100 µM
TGI (CAKI-1 renal): > 100 µM
TGI (DU-145 prostate): > 100 µM
TGI (HCT-116 colon): > 100 µM
TGI (MCF7 breast): > 100 µM
TGI (MDA-MB-231 breast): > 100 µM
TGI (NCI-H23 lung): > 100 µM
TGI (NCI/ADR-RES ovarian): > 100 µM
TGI (UACC-257 melanoma): > 100 µM

COc1cc([N+](=O)[O-])c(OC)c2c(Nc3ccc(S(=O)(=O)O)c4cc(S(=O)(=O)O)cc(S(=O)(=O)O)c34)cc(C)nc12
TGI (CAKI-1 renal): > 100 µM
TGI (DU-145 prostate): > 100 µM
TGI (HCT-116 colon): > 100 µM
TGI (MCF7 breast): > 100 µM
TGI (MDA-MB-231 breast): > 100 µM
TGI (NCI-H23 lung): > 100 µM
TGI (NCI-H522 lung): > 100 µM
TGI (NCI/ADR-RES ovarian): > 100 µM
TGI (UACC-257 melanoma): > 100 µM

COc1cc2[nH]c(-c3ccccc3)cc(=O)c2c(OC)c1OC
TGI (ACHN renal): > 100 µM
TGI (DU-145 prostate): > 100 µM
TGI (HCT-116 colon): > 100 µM
TGI (MCF7 breast): > 100 µM
TGI (MDA-MB-231 breast): > 100 µM
TGI (NCI-H23 lung): > 100 µM
TGI (NCI-H522 lung): > 100 µM
TGI (NCI/ADR-RES ovarian): > 100 µM
TGI (UACC-257 melanoma): > 100 µM

COc1ccc([C@H]2C=[N+]([O-])O[C@H](OC3CCCC3)[C@@H]2OC(C)=O)cc1OC
TGI (ACHN renal): 88.4 µM
TGI (CAKI-1 renal): 29.3 µM
TGI (DU-145 prostate): 89.6 µM
TGI (MCF7 breast): 49.5 µM
TGI (MDA-MB-231 breast): 78.2 µM
TGI (NCI-H23 lung): 57.2 µM
TGI (NCI-H522 lung): 17.9 µM
TGI (NCI/ADR-RES ovarian): 63.6 µM
TGI (UACC-257 melanoma): 54.3 µM

COc1ccc(N2C(=O)C3c4[nH]c5ccccc5c4C4CCCCCCCCCC4C3C2=O)cc1 (stereo unspecified)
TGI (ACHN renal): > 10 µM
TGI (CAKI-1 renal): > 10 µM
TGI (DU-145 prostate): > 10 µM
TGI (HCT-116 colon): > 10 µM
TGI (MCF7 breast): > 10 µM
TGI (MDA-MB-231 breast): > 10 µM
TGI (NCI-H23 lung): > 10 µM
TGI (NCI-H522 lung): > 10 µM
TGI (NCI/ADR-RES ovarian): > 10 µM

C[C@H]1OC(=O)[C@@H]2N=NN(Cc3ccccc3)[C@H]12
TGI (ACHN renal): > 100 µM
TGI (CAKI-1 renal): > 100 µM
TGI (DU-145 prostate): > 100 µM
TGI (HCT-116 colon): > 100 µM
TGI (MCF7 breast): > 100 µM
TGI (MDA-MB-231 breast): > 100 µM
TGI (NCI-H23 lung): > 100 µM
TGI (NCI-H522 lung): > 100 µM
TGI (NCI/ADR-RES ovarian): > 100 µM
